These results are taken from ChEMBL document CHEMBL1201862, “PubChem BioAssay data set” (2004).

The term AC50 denotes the concentration at which the activity in the assay is half-maximal. By EC50 is commonly meant the concentration needed to bring the measured effect to its halfway point. The IC50 is the concentration that gives 50% inhibition. Usually CC50 stands for the concentration giving 50% cytotoxicity.

Active and inactive are the calls of the source.

One assay relates to Escherichia coli. The assay is described as follows: microbe, parasite or virus in culture.
Assay [1] in a line: Luminescence Cell-Based Dose Confirmation HTS to Identify Activators of 5'UTR Stem-Loop Driven Alpha-Synuclein mRNA Translation in H4 Neuroglioblastoma Cells. [Related pubchem assays: 1829 (Project Summary), 1814 (Primary HTS)]. Type of assay: functional.
A short description of assay [2]: Luminescence Cell-Based Dose Response HTS to Identify Activators of Luciferase Translation or Activity in H4 […] Cells. [Related pubchem assays: 1829 (Project Summary), 1814 (Primary HTS)]. Type of assay: functional.
Another assay can be described thus: cells. Type of assay: functional.
Assay [3] has as its target T1, High affinity choline transporter 1 (Homo sapiens, UniProt Q9GZV3).
T1 sequence (Q9GZV3 whole entry): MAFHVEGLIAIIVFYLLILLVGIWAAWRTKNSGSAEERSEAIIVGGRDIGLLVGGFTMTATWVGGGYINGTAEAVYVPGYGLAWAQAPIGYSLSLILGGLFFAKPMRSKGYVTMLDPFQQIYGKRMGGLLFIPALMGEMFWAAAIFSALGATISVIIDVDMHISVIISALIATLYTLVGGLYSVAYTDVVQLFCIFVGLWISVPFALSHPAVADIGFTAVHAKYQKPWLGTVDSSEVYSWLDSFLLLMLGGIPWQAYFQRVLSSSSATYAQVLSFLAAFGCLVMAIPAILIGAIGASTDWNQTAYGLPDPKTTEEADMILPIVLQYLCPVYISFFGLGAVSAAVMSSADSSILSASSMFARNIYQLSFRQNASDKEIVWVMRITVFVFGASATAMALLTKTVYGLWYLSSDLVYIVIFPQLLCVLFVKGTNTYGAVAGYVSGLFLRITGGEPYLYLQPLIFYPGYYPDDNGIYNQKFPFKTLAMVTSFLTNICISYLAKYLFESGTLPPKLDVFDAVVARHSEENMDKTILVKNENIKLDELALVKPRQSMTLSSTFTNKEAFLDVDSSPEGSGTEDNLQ
The assay is described as follows: CHT inhibitors, dose response, cell-based, 5-point CRC, membrane potential dye (AID 504840). Format: functional.

The next assay has as its system HEK293. The assay is described as follows: inhibitors of LMP1-driven NF-kB reporter, dose response, cell-based, HEK293, luciferase, cherry-pick (AID 588343). Type of assay: functional. Conditions: Homo sapiens.
Assay [4] addresses Dual specificity protein kinase CLK1 (Homo sapiens, UniProt P49759). The assay is described as follows: CLK1 kinase inhibitors, off-target check, dose response, selectivity assay for Dyrk1A inhibitor project, biochemical, cherry-picked samples (AID 588811).
In another assay the test system is Vero. Nature of the assay: cells. Conditions: Chlorocebus sabaeus. Type of assay: functional.
Assay [5] addresses T2, Short transient receptor potential channel 4 (Mus musculus, UniProt Q9QUQ5).
T2 sequence (Q9QUQ5 whole entry): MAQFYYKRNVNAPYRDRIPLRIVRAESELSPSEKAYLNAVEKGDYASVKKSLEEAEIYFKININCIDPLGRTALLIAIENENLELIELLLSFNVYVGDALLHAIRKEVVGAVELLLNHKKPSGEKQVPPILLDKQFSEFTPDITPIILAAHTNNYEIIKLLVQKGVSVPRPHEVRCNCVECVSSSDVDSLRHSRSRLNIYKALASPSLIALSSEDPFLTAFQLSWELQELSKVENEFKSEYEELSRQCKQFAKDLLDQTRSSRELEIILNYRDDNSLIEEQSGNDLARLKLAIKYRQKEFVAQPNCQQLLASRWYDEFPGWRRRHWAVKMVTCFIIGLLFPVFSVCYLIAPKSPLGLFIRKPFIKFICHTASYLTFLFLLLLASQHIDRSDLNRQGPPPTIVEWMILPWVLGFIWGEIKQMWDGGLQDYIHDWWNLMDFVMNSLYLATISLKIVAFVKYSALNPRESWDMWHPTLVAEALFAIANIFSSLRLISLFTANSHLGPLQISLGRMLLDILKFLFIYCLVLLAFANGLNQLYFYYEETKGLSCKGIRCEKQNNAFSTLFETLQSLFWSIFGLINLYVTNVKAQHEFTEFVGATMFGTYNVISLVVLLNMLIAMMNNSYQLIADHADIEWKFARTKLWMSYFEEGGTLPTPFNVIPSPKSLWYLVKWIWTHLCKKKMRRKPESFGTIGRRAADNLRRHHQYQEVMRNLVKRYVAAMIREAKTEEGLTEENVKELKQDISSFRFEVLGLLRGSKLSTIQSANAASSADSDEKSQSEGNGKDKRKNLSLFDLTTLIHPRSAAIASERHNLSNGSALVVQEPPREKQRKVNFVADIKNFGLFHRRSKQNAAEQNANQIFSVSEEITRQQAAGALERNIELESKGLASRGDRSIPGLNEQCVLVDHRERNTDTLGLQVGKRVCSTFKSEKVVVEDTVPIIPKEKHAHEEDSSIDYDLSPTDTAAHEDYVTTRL
Nature of the assay: mouse TRPC4 channel activators, dose response, cell-based, HEK293 TRPC4/mu-opioid, Fluo-4 calcium (AID 434937). Type of assay: functional.

For assay [6], the target named is Delta-type opioid receptor (Homo sapiens, UniProt P41143). The assay is described as follows: Counterscreen for agonists of heterodimerization of the mu 1 (OPRM1) and delta 1 (OPRD1) opioid receptors: Luminescence-based cell-based high throughput dose response assay to identify agonists of OPRD1 homodimerization. [Related pubchem assays (depositor defined):AID504326, AID504355, AID504692, AID504904, AID504905]. Type of assay: functional. (Counterscreens check selectivity or assay interference.)
Delta-type opioid receptor, sequence (P41143 whole entry): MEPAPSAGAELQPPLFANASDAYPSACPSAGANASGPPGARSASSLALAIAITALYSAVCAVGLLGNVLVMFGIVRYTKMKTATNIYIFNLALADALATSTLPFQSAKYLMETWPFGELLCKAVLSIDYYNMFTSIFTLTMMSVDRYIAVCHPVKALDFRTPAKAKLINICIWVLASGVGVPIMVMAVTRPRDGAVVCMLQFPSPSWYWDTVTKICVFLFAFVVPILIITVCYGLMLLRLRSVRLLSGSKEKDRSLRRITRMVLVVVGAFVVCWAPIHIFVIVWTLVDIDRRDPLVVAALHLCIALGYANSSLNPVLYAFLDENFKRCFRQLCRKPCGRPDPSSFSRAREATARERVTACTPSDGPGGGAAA

The target of a further assay is Mu-type opioid receptor (Homo sapiens, UniProt P35372). The assay is described as follows: Counterscreen for agonists of heterodimerization of the mu 1 (OPRM1) and delta 1 (OPRD1) opioid receptors: Luminescence-based cell-based high throughput dose response assay to identify agonists of OPRM1 homodimerization. Format: functional.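 Note: U2OS cells expressing OPRM1 and beta-arrestin as split beta-galactosidase partners.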
Mu-type opioid receptor, sequence (P35372 whole entry): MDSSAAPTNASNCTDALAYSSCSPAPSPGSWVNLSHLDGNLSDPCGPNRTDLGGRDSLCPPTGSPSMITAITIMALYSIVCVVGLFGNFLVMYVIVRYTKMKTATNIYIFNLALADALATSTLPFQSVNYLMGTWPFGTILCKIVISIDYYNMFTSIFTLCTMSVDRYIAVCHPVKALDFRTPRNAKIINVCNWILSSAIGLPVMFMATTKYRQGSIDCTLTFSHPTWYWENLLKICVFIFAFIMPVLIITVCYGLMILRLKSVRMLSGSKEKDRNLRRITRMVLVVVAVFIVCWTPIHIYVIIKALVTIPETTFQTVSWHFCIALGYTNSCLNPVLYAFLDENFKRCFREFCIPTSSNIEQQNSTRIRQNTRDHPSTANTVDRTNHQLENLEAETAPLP
The target of assay [7] is 5-hydroxytryptamine receptor 5A (Homo sapiens, UniProt P47898). The assay is described as follows: Counterscreen for agonists of OPRM1-OPRD1 heterodimerization: luminescence-based cell-based high throughput dose response assay to identify agonists of 5-hydroxytryptamine (serotonin) 5A receptor (HTR5A). [Related pubchem assays (depositor defined):AID504326, AID504355, AID504692, AID504904, AID504905]. Format: functional.
5-hydroxytryptamine receptor 5A, sequence (P47898 whole entry): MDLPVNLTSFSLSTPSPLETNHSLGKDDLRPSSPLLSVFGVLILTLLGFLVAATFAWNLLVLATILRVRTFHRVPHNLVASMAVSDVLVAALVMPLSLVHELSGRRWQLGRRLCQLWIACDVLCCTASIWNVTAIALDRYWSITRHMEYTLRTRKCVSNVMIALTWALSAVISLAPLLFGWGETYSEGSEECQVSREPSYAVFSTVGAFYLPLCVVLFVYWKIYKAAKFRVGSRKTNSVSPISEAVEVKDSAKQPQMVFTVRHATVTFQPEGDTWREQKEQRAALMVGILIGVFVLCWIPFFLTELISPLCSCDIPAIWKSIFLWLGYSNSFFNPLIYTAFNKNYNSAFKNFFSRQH

Assay [8] deals with T2, Short transient receptor potential channel 4. The assay is described as follows: mouse TRPC4 channel inhibitors, dose response, cell-based, HEK293 TRPC4/mu-opioid, Fluo-4 calcium (AID 434942).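 Note: potency of inhibitors blocking the TRPC4 calcium response.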 Format: functional.
A further assay deals with T3, Bcl-2-related protein A1 (Mus musculus, UniProt Q07440).
T3 sequence (Q07440 whole entry): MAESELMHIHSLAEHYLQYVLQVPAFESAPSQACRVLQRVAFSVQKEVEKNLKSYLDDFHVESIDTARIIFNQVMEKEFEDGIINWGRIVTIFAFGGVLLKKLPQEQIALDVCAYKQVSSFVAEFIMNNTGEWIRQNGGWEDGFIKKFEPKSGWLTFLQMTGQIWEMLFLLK
Format: functional.

The target of assay [9] is T4, Ubiquitin-conjugating enzyme E2 N (Homo sapiens, UniProt P61088).
T4 sequence (P61088 whole entry): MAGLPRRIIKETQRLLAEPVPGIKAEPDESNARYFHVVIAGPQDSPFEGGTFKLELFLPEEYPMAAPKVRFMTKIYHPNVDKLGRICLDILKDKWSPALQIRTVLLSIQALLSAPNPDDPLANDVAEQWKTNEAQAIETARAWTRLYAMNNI
Type of assay: functional.

Assay [10] concerns the target T4, Ubiquitin-conjugating enzyme E2 N. Format: functional. This is another data set of the same source.
In assay [11] the target is T5, Replicative DNA helicase DnaB (Mycobacterium tuberculosis, UniProt P9WMR3).
T5 sequence (P9WMR3 whole entry): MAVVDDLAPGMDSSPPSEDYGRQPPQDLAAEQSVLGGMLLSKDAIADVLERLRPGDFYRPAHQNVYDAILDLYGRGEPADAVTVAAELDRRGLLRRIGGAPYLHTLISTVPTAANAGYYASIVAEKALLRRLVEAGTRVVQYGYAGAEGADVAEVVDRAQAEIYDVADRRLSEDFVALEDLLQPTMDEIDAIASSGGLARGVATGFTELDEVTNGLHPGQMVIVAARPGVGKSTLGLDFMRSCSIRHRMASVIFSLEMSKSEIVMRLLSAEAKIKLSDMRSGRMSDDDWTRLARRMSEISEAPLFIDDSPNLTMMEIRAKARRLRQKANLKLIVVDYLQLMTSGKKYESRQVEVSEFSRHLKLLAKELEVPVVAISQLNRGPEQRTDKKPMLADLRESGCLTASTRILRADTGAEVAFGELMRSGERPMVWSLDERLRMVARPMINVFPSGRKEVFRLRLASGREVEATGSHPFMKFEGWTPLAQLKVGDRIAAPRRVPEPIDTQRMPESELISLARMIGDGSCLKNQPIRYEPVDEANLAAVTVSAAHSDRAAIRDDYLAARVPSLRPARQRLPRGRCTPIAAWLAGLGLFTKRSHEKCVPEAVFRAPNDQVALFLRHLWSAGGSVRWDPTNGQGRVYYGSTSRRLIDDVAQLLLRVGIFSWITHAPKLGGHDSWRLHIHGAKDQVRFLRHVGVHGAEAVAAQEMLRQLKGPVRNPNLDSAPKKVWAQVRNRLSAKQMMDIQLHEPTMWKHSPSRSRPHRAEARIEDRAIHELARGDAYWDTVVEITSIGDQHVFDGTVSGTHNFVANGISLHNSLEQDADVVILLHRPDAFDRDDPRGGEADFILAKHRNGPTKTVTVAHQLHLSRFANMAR
Nature of the assay: DnaB intein splicing inhibitors, dose response, biochemical, cell-free fluorescence (AID 449749). Format: functional.

A further assay has as its target T6, Protein RecA (Mycobacterium tuberculosis, UniProt P9WHJ3).
T6 sequence (P9WHJ3 whole entry): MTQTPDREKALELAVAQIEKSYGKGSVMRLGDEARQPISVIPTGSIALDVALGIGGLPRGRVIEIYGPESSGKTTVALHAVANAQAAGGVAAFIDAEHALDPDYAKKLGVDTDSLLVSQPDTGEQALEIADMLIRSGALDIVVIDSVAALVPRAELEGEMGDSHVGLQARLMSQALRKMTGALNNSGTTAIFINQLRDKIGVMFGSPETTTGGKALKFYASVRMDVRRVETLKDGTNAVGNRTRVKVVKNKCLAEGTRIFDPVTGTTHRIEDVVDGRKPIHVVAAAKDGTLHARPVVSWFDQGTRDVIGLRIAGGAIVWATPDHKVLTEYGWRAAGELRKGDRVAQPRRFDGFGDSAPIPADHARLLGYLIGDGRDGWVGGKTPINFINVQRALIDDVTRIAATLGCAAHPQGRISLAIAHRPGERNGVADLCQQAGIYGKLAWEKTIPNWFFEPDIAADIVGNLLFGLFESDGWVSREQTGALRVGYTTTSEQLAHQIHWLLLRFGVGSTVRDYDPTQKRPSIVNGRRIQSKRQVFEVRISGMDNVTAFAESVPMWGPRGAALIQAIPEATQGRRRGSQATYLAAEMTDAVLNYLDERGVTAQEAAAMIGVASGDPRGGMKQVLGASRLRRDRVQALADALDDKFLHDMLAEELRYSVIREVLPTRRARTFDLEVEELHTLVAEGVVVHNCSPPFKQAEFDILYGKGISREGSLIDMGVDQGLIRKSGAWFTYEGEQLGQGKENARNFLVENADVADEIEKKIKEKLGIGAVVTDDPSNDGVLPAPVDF
The assay is described as follows: Fluorescence Cell-Free Homogeneous Dose Retest to Identify Inhibitors of RecA-Intein Splicing Activity. [Related pubchem assays (depositor defined):AID2097, AID2223, AID489010, AID492950]. Format: functional.

Dual specificity protein kinase CLK1, sequence (P49759 whole entry): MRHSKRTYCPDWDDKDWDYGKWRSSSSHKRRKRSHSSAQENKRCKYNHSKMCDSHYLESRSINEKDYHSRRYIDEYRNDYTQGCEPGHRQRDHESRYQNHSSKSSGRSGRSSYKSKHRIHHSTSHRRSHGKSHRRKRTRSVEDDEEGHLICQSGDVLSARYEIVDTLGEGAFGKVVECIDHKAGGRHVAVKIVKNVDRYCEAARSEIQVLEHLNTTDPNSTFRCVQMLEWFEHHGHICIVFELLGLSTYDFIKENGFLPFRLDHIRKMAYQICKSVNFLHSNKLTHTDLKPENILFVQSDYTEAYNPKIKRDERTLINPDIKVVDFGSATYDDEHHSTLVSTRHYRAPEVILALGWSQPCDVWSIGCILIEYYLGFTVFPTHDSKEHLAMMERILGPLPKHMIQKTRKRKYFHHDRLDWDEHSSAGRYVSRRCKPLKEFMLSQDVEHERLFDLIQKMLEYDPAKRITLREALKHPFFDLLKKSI

`O=C(Nc1ccccc1Oc1ccccc1)c1ccc(Br)o1`: the AC50 in the assay on Escherichia coli was > 380 µM (inactive).

Take `CCc1cc2c(=O)n(C(C)C(=O)OC3CCCCC3)cnc2s1` (stereo unspecified): the EC50 in [1] is 105 µM (active); in [2], 67.6 µM (active). In addition, the IC50 in “cells” was 17.9 µM (active). Besides, the AC50 in the assay on Escherichia coli was 54.4 µM (active).

On to `Fc1ccc(N=C(S)Nc2ccc(F)c(Cl)c2)cc1Cl`, for which the IC50 in [3] was 7.94 µM (active).

As for `c1csc(CNc2ncnc3ccc(-c4ccoc4)cc23)c1`, the AC50 was 19 µM (active) with HEK293 and 9.79 nM (active) in assay [4].

Turning to `Cc1noc(CN(C)c2ncnc3ccc(-c4ccc5c(c4)OCO5)cc23)n1`, the AC50 in [4] was < 1.95 nM (active).

Consider `N=c1n(CC(=O)c2cccc([N+](=O)[O-])c2)c2ccccc2n1Cc1ccccc1`, for which the CC50 in the assay with Vero is 11.2 µM (active).

Consider `COc1ccc(C(CNC(=O)/C=C/c2c(Cl)nc3ccccn23)N(C)C)cc1` (stereo unspecified), for which the EC50 in assay [5] is 473 nM (active); in assay [6], > 92.5 µM (inactive); at Mu-type opioid receptor, > 92.5 µM (inactive); in [7], > 92.5 µM (inactive).

With `CN(C(=O)COC(=O)CNC(=O)C12CC3CC(CC(C3)C1)C2)C1CCS(=O)(=O)C1` (stereo unspecified), the AC50 in the assay on Escherichia coli was 27.2 µM (active).

Take `COc1cccc(CC2(CO)CCCN(Cc3ccccc3-c3ccco3)C2)c1` (stereo unspecified): the EC50 in assay [8] was 1.19 µM (active); in assay [5] it was 2660 nM (active); in [6], > 92.5 µM (inactive); on Mu-type opioid receptor, > 92.5 µM (inactive); in [7], > 92.5 µM (inactive).

For `CCOC(=O)N1CCN(C(=O)C2CCCN(c3ncnc4c3nc3n4CCCCC3)C2)CC1` (stereo unspecified), the 50% inhibitory concentration (IC50) in assay [3] was 12.9 µM (active).

In the case of `O=C1N(c2ccccc2C(F)(F)F)O[C@]1(c1ccccc1)C1CCCCC1`, in the assay on Vero, the CC50 was > 25 µM (active).

`CN(C)C(CN=C(S)Nc1ccccc1)c1cccnc1` (stereo unspecified): the concentration giving a half-maximal response (EC50) in assay [5] is 149 nM (active); in [6] it was > 92.4 µM (inactive); on Mu-type opioid receptor, > 92.4 µM (inactive); in [7] it was > 92.4 µM (inactive).

As for `O=C(CSCc1ccc([N+](=O)[O-])cc1)N/N=C/c1cccnc1`, the IC50 at Bcl-2-related protein A1 was > 20 µM (inactive); in [9], 8.26 µM (active); in [10] it was 10.9 µM (active). For the same molecule, in assay [11], the AC50 is > 380 µM (inactive). At Protein RecA, the EC50 is > 380 µM (inactive).
